# Experimental data as given in patent US7442802B2, “Cyclooxygenase-2 selective inhibitors, compositions and methods of use” (NitroMed, Inc., priority 2002, dated 2008).
# Where two headings read alike, the source gives them in different places.
# Tests used:
# COX-2 = target: T1, COX-2 (Homo sapiens, UniProt P35354); assay: Human COX-2 enzyme activity in human whole blood (LPS-induced, thromboxane B2 EIA); type: cell-based; settings: for inhibition at 1 µM: read-out: COX-2 Inhibition (% at 1 μM); for inhibition at 10 µM: read-out: COX-2 Inhibition (% at 10 μM)
# T1 construct: To induce COX-2, lipopolysaccharide (LPS) from E. coli; endogenous in cells; host or cells: heparinised human whole blood from donors, with COX-2 induced by E. coli LPS
# T1 sequence (P35354 18-604): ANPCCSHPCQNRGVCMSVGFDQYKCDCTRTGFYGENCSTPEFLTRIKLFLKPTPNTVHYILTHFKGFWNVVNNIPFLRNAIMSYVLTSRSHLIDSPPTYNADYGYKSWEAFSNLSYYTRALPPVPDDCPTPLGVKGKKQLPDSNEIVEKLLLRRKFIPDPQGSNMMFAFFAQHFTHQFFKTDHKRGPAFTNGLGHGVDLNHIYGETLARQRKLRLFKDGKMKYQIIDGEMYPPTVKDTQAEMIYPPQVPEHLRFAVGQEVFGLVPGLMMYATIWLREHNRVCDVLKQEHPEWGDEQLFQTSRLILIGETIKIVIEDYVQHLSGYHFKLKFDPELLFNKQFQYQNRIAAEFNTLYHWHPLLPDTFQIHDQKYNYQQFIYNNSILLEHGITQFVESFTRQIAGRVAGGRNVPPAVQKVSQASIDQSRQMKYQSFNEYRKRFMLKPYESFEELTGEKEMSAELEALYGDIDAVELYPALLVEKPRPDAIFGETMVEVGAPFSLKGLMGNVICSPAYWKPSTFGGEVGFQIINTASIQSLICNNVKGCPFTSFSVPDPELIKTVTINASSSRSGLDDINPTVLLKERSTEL
# Method: (§1) The blood was transported to the laboratory on ice packs and used within 1.5 hours of collection. Upon receipt in the laboratory, the blood was allowed to come to room temperature for 15 minutes prior to distribution in 1 mL aliquots per well of 24 well tissue culture plates. […] Test compounds were dissolved in DMSO, at 1000 fold the final desired concentration, and further diluted, as indicated, in DMSO. One μL of each dilution of the test compound was added per well, in duplicate wells; wells not receiving test compound (e.g., basal, background or control wells) received 1 μL DMSO. […] Louis, Mo., Catalogue No. […] Louis, Mo., Catalogue No. […] (Again, basal, background or control wells not stimulated with A23187 received 1 μL of DMSO.) At 5 hours after the addition of the test compound, all incubations were terminated by placement on ice and the addition of 2 mM EGTA (100 μL of 20 mM EGTA, tetrasodium, in PBS (phosphate buffered saline) without Ca^++ and Mg^++, pH 7.2)). […] One hundred μL of plasma was removed from each blood sample and added to 1 mL of methanol in new 15 mL polypropylene centrifuge tubes, vortexed, and stored overnight at -20° C. […] The samples were assayed for thromboxane B2 using EIA kits supplied by Cayman Chemical Co. […] The % inhibition for COX-1 and COX-2 enzyme activity in human whole blood by the test compounds, at the indicated concentrations, are given in Table 1.
# COX-1 = target: T2, COX-1 (Homo sapiens, UniProt P23219); assay: Human COX-1 enzyme activity in human whole blood (A23187-stimulated, thromboxane B2 EIA); type: cell-based; settings: for inhibition at 100 µM: read-out: COX-1 Inhibition (% at 100 μM)
# T2 construct: endogenous in cells; host or cells: heparinised human whole blood from donors, stimulated with the calcium ionophore A23187
# T2 sequence (P23219 24-599): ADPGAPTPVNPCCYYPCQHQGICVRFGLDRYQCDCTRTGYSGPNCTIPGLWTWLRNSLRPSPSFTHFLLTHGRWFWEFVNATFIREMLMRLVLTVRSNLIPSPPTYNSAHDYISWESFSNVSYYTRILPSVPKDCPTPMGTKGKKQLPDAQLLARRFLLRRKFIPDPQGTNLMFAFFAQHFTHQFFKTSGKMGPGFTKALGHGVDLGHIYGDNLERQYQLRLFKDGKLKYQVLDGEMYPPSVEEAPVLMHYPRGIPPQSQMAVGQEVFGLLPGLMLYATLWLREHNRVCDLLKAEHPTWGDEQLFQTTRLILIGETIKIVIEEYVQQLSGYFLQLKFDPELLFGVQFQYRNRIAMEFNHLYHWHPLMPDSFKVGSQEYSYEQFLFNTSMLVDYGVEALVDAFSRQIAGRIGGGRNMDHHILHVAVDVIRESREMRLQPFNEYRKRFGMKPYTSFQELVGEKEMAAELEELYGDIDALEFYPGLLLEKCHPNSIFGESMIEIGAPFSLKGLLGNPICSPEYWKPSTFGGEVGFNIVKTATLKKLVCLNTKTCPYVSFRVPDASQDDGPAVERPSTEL
# Method: as §1
# [1] = 1 μM, human whole blood, LPS induction
# [2] = 10 μM, human whole blood, LPS induction
# [3] = 100 μM, human whole blood, A23187 stimulation
Structure (SMILES),inhibition at 1 µM (COX-2; [1]) [%],inhibition at 10 µM (COX-2; [2]) [%],melting point [°C],inhibition at 100 µM (COX-1; [3]) [%],also measured
"Cc1ccc(-n2nc(C(=O)CCCO[N+](=O)[O-])cc2-c2ccc(S(C)(=O)=O)cc2)cc1 [Example 12e, 1-(1-(4-Methylphenyl)-5-(4-(methylsulfonyl)phenyl)pyrazol-3-yl)-4-(nitrooxy)butan-1-one]",70,95,107 to 109,55,
"CS(=O)(=O)c1ccc(-c2cc(/C=C\CCO[N+](=O)[O-])nn2C2CCCCC2)cc1 [Example 4f, 1-(3-((1Z)-4-(Nitrooxy)but-1-enyl)-1-cyclohexylpyrazol-5-yl)-4-(methylsulfonyl)benzene]",70,95,137 to 138,20,
"CS(=O)(=O)c1ccc(-c2cc(C(=O)CCCO[N+](=O)[O-])nn2-c2ccc(Cl)cc2)cc1 [Example 44e, 1-(1-(4-Chlorophenyl)-5-(4-(methylsulfonyl)phenyl)pyrazol-3-yl)-4-(nitrooxy)butan-1-one]",30,100,131 to 132,60,
"CS(=O)(=O)c1ccc(-c2cc(CCCO[N+](=O)[O-])nn2C2CCCCC2)cc1 [Example 31e, 4-(1-Cyclohexyl-3-(3-(nitrooxy)propyl)pyrazol-5-yl)-1-(methylsulfonyl)benzene]",,,77,,
"NS(=O)(=O)c1ccc(-c2c(-c3ccccc3)noc2COCC(F)(F)C(F)(F)C(F)(F)CO[N+](=O)[O-])cc1 [Example 34b, 4-(5-((2,2,3,3,4,4-Hexafluoro-5-(nitrooxy)pentyloxy)methyl)-3-phenylisoxazol-4-yl)benzenesulfonamide]",,,38 to 39,,inhibition at 1 µM (COX-2): 90%; inhibition at 10 µM (COX-2): 100%; inhibition at 100 µM (COX-1): 75%
"CS(=O)(=O)c1ccc(-c2cc(C(=O)CCCO[N+](=O)[O-])nn2-c2ccc(Br)cc2)cc1 [Example 14e, 1-(1-(4-Bromophenyl)-5-(4-(methylsulfonyl)phenyl)pyrazol-3-yl)-4-(nitrooxy)butan-1-one]",70,95,150 to 152,90,
"NS(=O)(=O)c1ccc(-c2cc(C(=O)CCCO[N+](=O)[O-])nn2C2CCCCC2)cc1 [Example 43h, 4-(1-Cyclohexyl-3-(4-(nitrooxy)butanoyl)pyrazol-5-yl)benzenesulfonamide]",10,20,45 to 47,50,
"CS(=O)(=O)c1ccc(-c2cc(C(=O)CCCO[N+](=O)[O-])nn2-c2ccc(C(F)(F)F)cc2)cc1 [Example 23e, 1-(5-(4-(Methylsulfonyl)phenyl)-1-(4-(trifluoromethyl)phenyl)pyrazol-3-yl)-4-(nitrooxy)butan-1-one]",35,100,152 to 154,45,
"CS(=O)(=O)c1ccc(-c2cc(C(=O)NCCO[N+](=O)[O-])nn2C2CCCCC2)cc1 [Example 45c, (1-Cyclohexyl-5-(4-(methylsulfonyl)phenyl)pyrazol-3-yl)-N-(2-(nitrooxy)ethyl)carboxamide]",,,168 to 170,,
"CS(=O)(=O)c1ccc(-c2cc(CCO[N+](=O)[O-])nn2C2CCCCC2)cc1 [Example 30d, 4-(1-Cyclohexyl-3-(2-(nitrooxy)ethyl)pyrazol-5-yl)-1-(methylsulfonyl)benzene]",,,117,,
NS(=O)(=O)c1ccc(-c2c(-c3ccccc3)noc2COCCCO[N+](=O)[O-])cc1 [Example 26b],,,,,COX-2 Inhibition (% at 1 μM) (COX-2; [1]): 55%; COX-2 Inhibition (% at 10 μM) (COX-2; [2]): 100%; COX-1 Inhibition (% at 100 μM) (COX-1; [3]): 70%
"CS(=O)(=O)c1ccc(-c2cc(/C=C/CO)nn2C2CCCCC2)cc1 [Example 31c, 4-(3-((1E)-3-Hydroxyprop-1-enyl)-1-cyclohexylpyrazol-5-yl)-1(methylsulfonyl)benzene]",0,15,,10,
"CS(=O)(=O)c1ccc(-c2cc(CO)nn2C2CCCCCC2)cc1 [Example 2c, 1-(1-Cycloheptyl-3-(hydroxymethyl)pyrazol-5-yl)-4-(methylsulfonyl)benzene]",10,25,,40,
"Cc1ccc(-n2nc(C(=O)CCCO)cc2-c2ccc(S(C)(=O)=O)cc2)cc1 [Example 12d, 4-Hydroxy-1-(1-(4-methylphenyl)-5-(4-(methylsulfonyl)phenyl)pyrazol-3-yl)butan-1-one]",15,45,,0,
NS(=O)(=O)c1ccc(-c2c(-c3ccccc3)noc2COCC(F)(F)C(F)(F)CO)cc1 [Example 33a],,,,,COX-2 Inhibition (% at 1 μM) (COX-2; [1]): 40%; COX-2 Inhibition (% at 10 μM) (COX-2; [2]): 100%; COX-1 Inhibition (% at 100 μM) (COX-1; [3]): 75%
"Cc1ccc(-c2[nH]nc(COCCCO[N+](=O)[O-])c2-c2ccc(S(N)(=O)=O)cc2)cc1 [Example 20g, 4-(5-(4-Methylphenyl)-3-((3-(nitrooxy)propoxy)methyl)pyrazolyl)benzenesulfonamide]",,,62,,
CS(=O)(=O)c1ccc(-c2cc(CO[N+](=O)[O-])nn2C2CCCCCCC2)cc1 [Example 1h],,,,,COX-2 Inhibition (% at 1 μM) (COX-2; [1]): 50%; COX-2 Inhibition (% at 10 μM) (COX-2; [2]): 90%; COX-1 Inhibition (% at 100 μM) (COX-1; [3]): 60%
"CS(=O)(=O)c1ccc(-c2cc(COCCCO[N+](=O)[O-])nn2-c2ccc(F)cc2)cc1 [Example 18e, 1-(1-(4-Fluorophenyl)-3-((3-(nitrooxy)propoxy)methyl)pyrazol-5-yl)-4-(methylsulfonyl)benzene]",55,95,,80,
"CS(=O)(=O)c1ccc(-c2cc(COCCCO)nn2-c2ccc(F)cc2)cc1 [Example 18d, 1-(1-(4-Fluorophenyl)-3-((3-hydroxypropoxy)methyl)pyrazol-5-yl)-4-(methylsulfonyl)benzene]",45,90,,40,
"CS(=O)(=O)c1ccc(-c2cc(/C=C/CCO[N+](=O)[O-])nn2C2CCCCC2)cc1 [Example 21c, 1-(3-((1E)-4-(Nitrooxy)but-1-enyl)-1-cyclohexylpyrazol-5-yl)-4-(methylsulfonyl)benzene]",45,90,,60,
"CC(CCOCc1cc(-c2ccc(S(C)(=O)=O)cc2)n(-c2ccccc2)n1)O[N+](=O)[O-] (centres unmarked) [Example 19c, 4-(Methylsulfonyl)-1-(3-((3-(nitrooxy)butoxy)methyl)-1-phenylpyrazol-5-yl)benzene]",20,30,,35,
"CS(=O)(=O)c1ccc(-c2cc(COCCCO)nn2-c2ccc(Cl)cc2)cc1 [Example 7d, 1-(1-(4-Chlorophenyl)-3-((3-hydroxypropoxy)methyl)pyrazol-5-yl)-4-(methylsulfonyl)benzene]",25,95,,80,
"COc1ccc(-n2nc(COCCCO)cc2-c2ccc(S(C)(=O)=O)cc2)cc1 [Example 10d, 1-(3-((3-Hydroxypropoxy)methyl)-1-(4-methoxyphenyl)pyrazol-5-yl)-4-(methylsulfonyl)benzene]",25,100,,100,
